These results are taken from PubChem BioAssay (NCI).

Several values for one entry are separate records, joined by “and”; a condition that tells them apart may be missing. Identical values can stand only once.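 A five-concentration, 48-hour dose response in 96-well plates underlies each endpoint, interpolated linearly between surrounding concentrations. Here, GI50 denotes the concentration required for 50% inhibition of growth. TGI: concentration producing complete growth inhibition.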 A value given as a limit tells only on which side of the number the result lay.

Holding throughout (test): NCI tumour cell line growth inhibition, 48 h
Test [1] concerns NCI/ADR-RES ovarian.
The subject of test [2] is A498 renal.
The subject of test [3] is SK-MEL-2 melanoma.
The test system of test [4] is SNB-75 CNS.
Test [5] deals with PC-3 prostate.
Test [6] deals with T-47D breast.
Test [7] deals with MDA-MB-231 breast.
Test [8] has as its system BT-549 breast.
The subject of test [9] is OVCAR-5 ovarian.
The subject of test [10] is MCF7 breast.

For the compound `CCc1c(Cl)c(C)cc(O)c1Cl`, the TGI in test [1] was > 100 µM; in test [2], 54.7 µM; in [3], 68.3 µM; in [4], > 100 µM; in test [5] it was 51.3 µM; in test [6] it was > 100 µM. The TGI was > 100 µM in test [7], 42.8 µM in test [8], > 100 µM in test [9] and > 100 µM in test [10].

Take `Cn1c(=O)c(Oc2ccc(F)cc2)cc2cnc(NC3CCOCC3)nc21`: the GI50 in test [1] is > 25 µM; in test [2], 13.4 µM; in test [3] it was > 25 µM; in test [4], > 25 µM; in test [5], > 25 µM; in test [6], 22.2 µM. Moreover, the GI50 in test [7], in test [8], in test [9] and in test [10] was > 25 µM throughout. Further, the TGI in test [1], in test [2], in [3], in test [4], in test [5] and in [6] was > 25 µM each time. Further, the TGI in [7], in test [8], in [9] and in [10] was > 25 µM throughout.

Regarding `CCN(Cc1ccc(F)cc1)c1ccc(CO)c(Br)c1`, the GI50 was 13.4 µM in test [1]; 0.0272 µM in [2]; 0.96 µM in test [3]; 6.28 µM in test [4]; 12.8 µM in [5]; 0.0546 µM in [6]. Moreover, the GI50 in [7] is 14.2 µM; in [8] it was 12.2 µM; in test [9] it was 0.0525 µM; in [10], 0.15 µM. The TGI in test [1] is 46.8 µM; in test [2], 0.136 µM; in test [3], 12.6 µM; in [4] it was 39.8 µM; in test [5], 36.2 µM; in [6], 0.296 µM. The TGI was found to be 36.5 µM in test [7], 29 µM in test [8], 0.225 µM in test [9] and 16.1 µM in test [10].

Consider `O=C1c2cccc3cccc(c23)C(=O)N1CCCCCN1CCN(CCCCCOc2ccc(-c3nc4ccc(N5CCOCC5)cc4[nH]3)cc2)CC1`, for which the GI50 was 8.7 µM in test [1]; > 74.9 µM in test [2]; 10.7 µM in test [3]; 18.3 µM in test [4]; 2.77 µM in test [5]; 2.01 µM in [6]. Moreover, the GI50 in test [7] is 12.6 µM; in test [8], 4.88 µM; in test [9], > 100 µM; in test [10] it was 2.49 µM. Moreover, the TGI is > 60.2 µM in [1]; > 100 µM in [2]; 32.8 µM in [3]; 34.6 µM in [4]; 17.6 µM in test [5]; 7.71 µM in test [6]. Also, the TGI was > 20.4 µM in test [7], 23.2 µM in [8], > 100 µM in test [9] and 8 µM in test [10].

`COc1ccc(-c2nsc3c2NC(=O)CC3c2cccc(OC)c2)cc1` (configuration not stated): the GI50 in [1] was 0.42 µM; in test [2], 0.408 µM; in test [3] it was 3.81 µM; in test [4], 1.3 µM; in [5], 2.45 µM; in [6], 0.871 µM. In addition, the GI50 in test [7] is 1.17 µM; in test [8] it was 2.87 µM; in test [9], 3.79 µM; in [10], 0.55 µM. In addition, the TGI was 2.27 µM in test [1]; 5.02 µM in [2]; 64.1 µM in [3]; > 100 µM in test [5]; > 100 µM in [6]; > 100 µM in test [7]. Besides, the TGI in test [8], in test [9] and in test [10] was > 100 µM throughout.

As to `CSc1nc(NC2OC(COC(C)=O)C(OC(C)=O)C(OC(C)=O)C2OC(C)=O)c(N=CC=Nc2c(NC3OC(COC(C)=O)C(OC(C)=O)C(OC(C)=O)C3OC(C)=O)nc(SC)n(C)c2=O)c(=O)n1C` (configuration not stated), the GI50 is > 50 µM in [1]; > 50 µM in test [2]; 25.2 µM in test [3]; 8.97 µM in test [4]; > 50 µM in [5]; 43.2 µM in [6]. For the same compound, the GI50 in [7] is 25.2 µM; in test [8] it was 37.5 µM; in test [9], > 50 µM; in test [10], > 50 µM. For the same compound, the TGI is > 100 µM in [1]; > 50 µM and 82.8 µM in [2]; 50 µM and > 96 µM in [3]; 25.4 µM and 24.3 µM in test [4]; > 100 µM in test [5]; 50 µM and > 100 µM in [6]. Besides, the TGI in [7] was 50 µM and > 100 µM; in test [8] it was 50 µM and > 100 µM; in test [9], > 100 µM; in test [10] it was > 100 µM.

Turning to `Nc1ccn(C2OC(CO)C(O)C2O)c(=O)n1` (configuration not stated), the GI50 was 0.532 µM in test [1]; 12 µM and 4.38 µM and 20.8 µM in [2]; > 46.3 µM in test [5]; 4.2 µM in test [6]; 7.08 µM in test [8]; 0.0408 µM in test [10]. Further, the TGI in test [2] is > 100 µM and 424 µM; in [3], > 500 µM; in test [4], > 500 µM; in [5] it was > 500 µM; in test [6], > 500 µM; in [7] it was > 500 µM. Further, the TGI is > 500 µM in test [8]; > 100 µM and 392 µM and > 500 µM in test [9]; > 100 µM and 434 µM and > 500 µM in test [10].

As for `Cc1cc2cc3c(=O)[nH]c(=O)[nH]c3nc2cc1C`, the TGI in test [1] is > 100 µM; in test [2], > 100 µM; in test [3] it was > 100 µM; in test [4] it was 90 µM; in test [5] it was > 100 µM; in [6] it was > 100 µM. Moreover, the TGI in test [7], in test [8], in [9] and in test [10] was > 100 µM each time.

Turning to `O=[P@@]1(c2ccccc2)O[C@H](COCc2ccccc2)[C@@H](OCc2ccccc2)[C@H](OCc2ccccc2)[C@H]1NCc1ccccc1`, the GI50 was 3.16 µM in test [1]; 2.39 µM in test [2]; 3.73 µM in test [3]; 2.08 µM in [4]; 3.03 µM in [5]; 2.85 µM in test [6]. Also, the GI50 in test [7] is 3.22 µM; in [8], 2.89 µM; in [9], 3.51 µM; in test [10], 3.38 µM. In addition, the TGI in test [1] is > 100 µM; in test [2], 8.99 µM; in [3], > 100 µM; in test [4], 47.5 µM; in test [5], > 100 µM; in test [6], 7.92 µM. Also, the TGI is > 100 µM in test [7], 16.2 µM in test [8], > 100 µM in [9] and 70.4 µM in test [10].

As to `O=C(/C=C/C=C/c1ccccc1)c1ccccc1`, the TGI in test [1] was 27.1 µM; in test [2] it was 31.5 µM; in test [3] it was 45.5 µM; in [4], 41.9 µM; in [5], 37.2 µM; in test [6], 48.2 µM. The TGI was 37.8 µM in test [7], 43.5 µM in test [8], 28.8 µM in [9] and 42.9 µM in [10].

With `C=CCc1ccc(O)c(-c2ccc(O)c(CC=C)c2)c1`, the GI50 in test [1] was 15.3 µM; in [2], 17.4 µM; in test [3] it was 14.5 µM; in test [4] it was 22.1 µM; in test [5] it was 15.2 µM; in test [6], 20.3 µM. Besides, the GI50 in test [7] is 12.1 µM; in test [8] it was 13.2 µM; in test [9] it was 16.8 µM; in [10], 8.06 µM. For the same compound, the TGI in test [1] is 33.9 µM; in test [2], 31.9 µM; in test [3], 33 µM; in test [4] it was > 46.6 µM; in [5] it was 33.2 µM; in test [6], > 53.9 µM. The TGI in test [7] is 25.6 µM; in [8], 27.5 µM; in [9], 38.9 µM; in test [10], 26.2 µM.

As for `O=C1CCC/C=C\C[C@H]2C=CC(=O)/C2=C/C[C@H](C/C=C\CC(F)(F)F)O1`, the GI50 was 0.627 µM in test [1]; 2.56 µM in test [2]; 0.365 µM in test [3]; 0.806 µM in test [4]; 0.574 µM in test [5]; 0.635 µM in [6]. Also, the GI50 in test [7] is 0.722 µM; in test [8], 0.292 µM; in test [9] it was 0.67 µM; in test [10], 0.336 µM. Moreover, the TGI in test [1] was 16.7 µM; in [2], 4.89 µM; in [3], 1.19 µM; in test [4], 3.22 µM; in test [5], 2.71 µM; in test [6], 2.86 µM. Moreover, the TGI was found to be 5.63 µM in test [7], 0.659 µM in test [8], 3.11 µM in test [9] and 3.16 µM in test [10].

As for `O=[N+]([O-])c1cccc2ccc(N/N=C/c3ccccc3O)nc12`, the GI50 is > 100 µM in test [1]; > 100 µM in test [2]; > 100 µM in [3]; > 37.8 µM in test [4]; 4.67 µM in test [5]; 1.07 µM in [6]. The GI50 in test [7] was > 100 µM; in test [8] it was > 100 µM; in test [9], > 100 µM; in test [10], 2.34 µM. For the same compound, the TGI is > 100 µM in test [1]; > 100 µM in [2]; > 100 µM in [3]; > 70.6 µM in [4]; > 100 µM in test [5]; > 100 µM in [6]. In addition, the TGI in [7], in [8], in test [9] and in test [10] was > 100 µM each time.

Regarding `C[C@H]1CN[C@@H]2[C@@H](C)[C@H]3[C@@H](C[C@H]4[C@@H]5CC[C@H]6C[C@@H](N)CC[C@]6(C)[C@H]5CC[C@]34C)O[C@@]2(O)C1`, the TGI in [1] was determined as 5.66 µM; in test [2], 1.44 µM; in test [3], 12.2 µM; in [4], 9.52 µM; in test [5], 13.9 µM; in test [6] it was 4.51 µM. Moreover, the TGI in test [7] was 4.3 µM; in test [8], 7.24 µM; in test [9], 19.6 µM; in test [10], 26.3 µM.

With `COc1ccc(C2=C(c3ccc(OC)cc3)C(=O)N3CCCC3C2)cc1` (configuration not stated), the GI50 in test [1] was 10.3 µM; in test [2], 45.9 µM; in test [3] it was 18.3 µM; in [4], 15.6 µM; in test [5] it was 12.4 µM; in test [6], 28 µM. The GI50 in test [7] was 25.4 µM; in [8] it was 17.1 µM; in [9], > 83.7 µM; in test [10], 12.8 µM. Besides, the TGI was > 100 µM in test [1]; > 100 µM in test [2]; > 100 µM in test [3]; > 72.7 µM in [4]; > 100 µM in test [5]; > 100 µM in test [6]. Moreover, the TGI in test [7] is > 73.9 µM; in test [8] it was > 89.8 µM; in [9], > 100 µM; in [10], > 100 µM.

For the compound `COc1ccc(/C(=C\C=C(C#N)C#N)Sc2nc3ccccc3s2)cc1`, the GI50 in test [1] is 3.69 µM; in test [2], 16.4 µM; in test [3], 34.1 µM; in test [5], 7.34 µM; in test [6], 6.82 µM; in test [7], 6.71 µM. For the same compound, the figures for the GI50 in [8], in [9] and in [10] were 6.51 µM, 7.65 µM and 2.26 µM, respectively. Further, the TGI is 12.6 µM in test [1]; 28.5 µM in test [2]; > 50 µM in test [3]; 14.3 µM in test [5]; 27 µM in test [6]; 14.4 µM in test [7]. The TGI in [8] stood at 17.5 µM; in test [9], 15.1 µM; in test [10], 17.9 µM.
